Assay results from patent US10870647B2, “Imidazopyridine derivative, method for preparing same, and pharmaceutical composition containing same as active ingredient for preventing or treating cancer” (DAEGU-GYEONGBUK MEDICAL INNOVATION FOUNDATION, priority 2016, dated 2020).

Assays:
Experiment in all cases: Kinase selectivity, scanMAX Kinase assay panel (DiscoverX), % control at 1 uM
Format in all cases: binding
[1] = target: T1, scanMAX Kinase assay panel (Homo sapiens, UniProt P36894); details: BMPR1A; 1 uM; read-out: Percent Control (%)
T1 construct: purchased DiscoverX
T1 sequence (P36894 24-532): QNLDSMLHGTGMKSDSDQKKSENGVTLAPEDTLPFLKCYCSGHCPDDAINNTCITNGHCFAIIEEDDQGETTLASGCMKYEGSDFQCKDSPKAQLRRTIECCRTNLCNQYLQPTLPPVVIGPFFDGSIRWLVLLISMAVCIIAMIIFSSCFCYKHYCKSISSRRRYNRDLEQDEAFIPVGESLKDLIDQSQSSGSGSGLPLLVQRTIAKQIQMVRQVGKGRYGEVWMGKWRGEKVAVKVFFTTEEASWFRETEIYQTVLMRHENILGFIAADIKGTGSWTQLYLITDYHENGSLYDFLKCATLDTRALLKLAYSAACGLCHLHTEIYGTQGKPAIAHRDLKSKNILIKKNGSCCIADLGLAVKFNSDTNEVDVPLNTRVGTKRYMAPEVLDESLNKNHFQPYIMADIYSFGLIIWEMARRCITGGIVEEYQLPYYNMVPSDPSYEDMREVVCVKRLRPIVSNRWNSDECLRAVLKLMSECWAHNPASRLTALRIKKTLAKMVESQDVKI
In short: (§1)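 Binding across the scanMAX kinase panel was tested at 1 uM compound. % control = (compound − positive control)/(negative control − positive control) × 100; below 35 counted as active.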

[2] = target: T2, scanMAX Kinase assay panel (Homo sapiens, UniProt Q9C098); details: DCAMKL3; 1 uM; read-out: Percent Control (%)
T2 construct: purchased DiscoverX
T2 sequence (Q9C098 whole entry): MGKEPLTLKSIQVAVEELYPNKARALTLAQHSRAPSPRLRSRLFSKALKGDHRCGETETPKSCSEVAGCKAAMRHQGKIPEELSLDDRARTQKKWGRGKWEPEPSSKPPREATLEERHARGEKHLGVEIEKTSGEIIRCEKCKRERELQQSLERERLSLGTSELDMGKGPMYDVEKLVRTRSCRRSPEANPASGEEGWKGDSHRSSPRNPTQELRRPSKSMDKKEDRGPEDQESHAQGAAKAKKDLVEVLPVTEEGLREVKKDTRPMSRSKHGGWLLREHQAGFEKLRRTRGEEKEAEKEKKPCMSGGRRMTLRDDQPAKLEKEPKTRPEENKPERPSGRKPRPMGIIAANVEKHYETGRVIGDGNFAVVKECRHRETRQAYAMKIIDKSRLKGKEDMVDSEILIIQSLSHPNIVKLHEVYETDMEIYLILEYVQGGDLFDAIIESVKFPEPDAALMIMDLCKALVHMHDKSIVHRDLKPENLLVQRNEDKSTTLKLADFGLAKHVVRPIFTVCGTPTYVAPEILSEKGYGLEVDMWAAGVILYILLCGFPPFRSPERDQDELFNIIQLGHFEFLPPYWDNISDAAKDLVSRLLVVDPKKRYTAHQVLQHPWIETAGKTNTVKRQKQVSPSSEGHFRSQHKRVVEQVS
In short: as §1

[3] = target: T3, scanMAX Kinase assay panel (Homo sapiens, UniProt Q8IYT8); details: ULK2; 1 uM; read-out: Percent Control (%)
T3 construct: purchased DiscoverX
T3 sequence (Q8IYT8 1-1036): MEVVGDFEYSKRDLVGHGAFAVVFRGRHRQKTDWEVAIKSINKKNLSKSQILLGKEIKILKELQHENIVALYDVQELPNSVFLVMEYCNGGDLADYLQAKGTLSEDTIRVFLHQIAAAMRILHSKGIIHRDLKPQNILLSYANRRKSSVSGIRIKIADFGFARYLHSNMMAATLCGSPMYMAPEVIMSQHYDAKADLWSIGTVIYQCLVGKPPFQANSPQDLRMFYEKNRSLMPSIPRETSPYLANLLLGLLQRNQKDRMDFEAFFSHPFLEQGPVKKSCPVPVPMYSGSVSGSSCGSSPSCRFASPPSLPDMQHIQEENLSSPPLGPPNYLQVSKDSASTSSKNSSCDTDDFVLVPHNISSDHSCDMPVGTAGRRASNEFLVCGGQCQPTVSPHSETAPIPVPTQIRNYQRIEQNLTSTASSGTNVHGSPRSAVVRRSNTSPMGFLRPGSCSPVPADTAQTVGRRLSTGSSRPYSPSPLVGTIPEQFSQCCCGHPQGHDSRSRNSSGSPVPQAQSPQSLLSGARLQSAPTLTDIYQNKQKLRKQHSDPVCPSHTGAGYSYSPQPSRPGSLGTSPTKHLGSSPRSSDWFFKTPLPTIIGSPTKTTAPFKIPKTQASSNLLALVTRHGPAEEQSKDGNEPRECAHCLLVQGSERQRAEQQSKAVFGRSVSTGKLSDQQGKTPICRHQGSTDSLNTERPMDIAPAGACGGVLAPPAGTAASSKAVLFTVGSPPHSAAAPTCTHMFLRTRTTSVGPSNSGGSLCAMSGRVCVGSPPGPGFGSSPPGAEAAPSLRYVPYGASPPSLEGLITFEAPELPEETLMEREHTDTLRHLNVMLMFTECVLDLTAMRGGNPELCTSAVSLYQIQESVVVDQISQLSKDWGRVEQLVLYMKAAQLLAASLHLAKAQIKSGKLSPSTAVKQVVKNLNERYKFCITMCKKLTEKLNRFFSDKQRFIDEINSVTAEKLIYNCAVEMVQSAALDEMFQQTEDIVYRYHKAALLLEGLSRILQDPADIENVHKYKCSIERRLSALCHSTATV
In short: as §1

[4] = target: T4, scanMAX Kinase assay panel (Homo sapiens, UniProt O75385); details: ULK1; 1 uM; read-out: Percent Control (%)
T4 construct: purchased DiscoverX
T4 sequence (O75385 1-1050): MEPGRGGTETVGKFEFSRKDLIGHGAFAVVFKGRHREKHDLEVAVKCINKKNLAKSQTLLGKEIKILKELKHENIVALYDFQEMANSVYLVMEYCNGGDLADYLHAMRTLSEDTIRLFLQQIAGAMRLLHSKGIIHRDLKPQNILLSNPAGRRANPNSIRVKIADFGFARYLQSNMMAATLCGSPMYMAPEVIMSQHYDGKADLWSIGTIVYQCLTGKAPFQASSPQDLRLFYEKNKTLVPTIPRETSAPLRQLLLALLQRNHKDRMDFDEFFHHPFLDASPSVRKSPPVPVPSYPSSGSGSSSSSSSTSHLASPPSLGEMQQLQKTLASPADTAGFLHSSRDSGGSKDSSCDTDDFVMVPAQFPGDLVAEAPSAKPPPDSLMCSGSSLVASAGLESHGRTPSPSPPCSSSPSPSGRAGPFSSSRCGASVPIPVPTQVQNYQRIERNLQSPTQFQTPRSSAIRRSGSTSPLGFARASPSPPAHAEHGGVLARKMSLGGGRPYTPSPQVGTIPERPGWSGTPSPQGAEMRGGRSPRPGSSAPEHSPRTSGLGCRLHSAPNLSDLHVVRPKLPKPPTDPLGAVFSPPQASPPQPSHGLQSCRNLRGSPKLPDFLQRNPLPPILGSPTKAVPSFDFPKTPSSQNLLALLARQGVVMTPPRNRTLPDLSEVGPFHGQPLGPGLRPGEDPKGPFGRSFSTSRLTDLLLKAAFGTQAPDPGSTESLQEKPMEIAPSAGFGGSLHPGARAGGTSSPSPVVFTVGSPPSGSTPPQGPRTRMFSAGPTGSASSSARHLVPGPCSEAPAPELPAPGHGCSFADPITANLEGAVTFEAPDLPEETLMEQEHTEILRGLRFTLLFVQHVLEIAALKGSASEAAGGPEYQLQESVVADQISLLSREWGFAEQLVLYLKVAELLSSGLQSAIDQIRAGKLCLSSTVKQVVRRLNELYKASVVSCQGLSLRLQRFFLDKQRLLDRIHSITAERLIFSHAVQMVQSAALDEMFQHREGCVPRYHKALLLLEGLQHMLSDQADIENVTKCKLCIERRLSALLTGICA
In short: as §1

[5] = target: T5, scanMAX Kinase assay panel (Homo sapiens, UniProt P21860); details: ERBB3; 1 uM; read-out: Percent Control (%)
T5 construct: purchased DiscoverX
T5 sequence (P21860 20-1342): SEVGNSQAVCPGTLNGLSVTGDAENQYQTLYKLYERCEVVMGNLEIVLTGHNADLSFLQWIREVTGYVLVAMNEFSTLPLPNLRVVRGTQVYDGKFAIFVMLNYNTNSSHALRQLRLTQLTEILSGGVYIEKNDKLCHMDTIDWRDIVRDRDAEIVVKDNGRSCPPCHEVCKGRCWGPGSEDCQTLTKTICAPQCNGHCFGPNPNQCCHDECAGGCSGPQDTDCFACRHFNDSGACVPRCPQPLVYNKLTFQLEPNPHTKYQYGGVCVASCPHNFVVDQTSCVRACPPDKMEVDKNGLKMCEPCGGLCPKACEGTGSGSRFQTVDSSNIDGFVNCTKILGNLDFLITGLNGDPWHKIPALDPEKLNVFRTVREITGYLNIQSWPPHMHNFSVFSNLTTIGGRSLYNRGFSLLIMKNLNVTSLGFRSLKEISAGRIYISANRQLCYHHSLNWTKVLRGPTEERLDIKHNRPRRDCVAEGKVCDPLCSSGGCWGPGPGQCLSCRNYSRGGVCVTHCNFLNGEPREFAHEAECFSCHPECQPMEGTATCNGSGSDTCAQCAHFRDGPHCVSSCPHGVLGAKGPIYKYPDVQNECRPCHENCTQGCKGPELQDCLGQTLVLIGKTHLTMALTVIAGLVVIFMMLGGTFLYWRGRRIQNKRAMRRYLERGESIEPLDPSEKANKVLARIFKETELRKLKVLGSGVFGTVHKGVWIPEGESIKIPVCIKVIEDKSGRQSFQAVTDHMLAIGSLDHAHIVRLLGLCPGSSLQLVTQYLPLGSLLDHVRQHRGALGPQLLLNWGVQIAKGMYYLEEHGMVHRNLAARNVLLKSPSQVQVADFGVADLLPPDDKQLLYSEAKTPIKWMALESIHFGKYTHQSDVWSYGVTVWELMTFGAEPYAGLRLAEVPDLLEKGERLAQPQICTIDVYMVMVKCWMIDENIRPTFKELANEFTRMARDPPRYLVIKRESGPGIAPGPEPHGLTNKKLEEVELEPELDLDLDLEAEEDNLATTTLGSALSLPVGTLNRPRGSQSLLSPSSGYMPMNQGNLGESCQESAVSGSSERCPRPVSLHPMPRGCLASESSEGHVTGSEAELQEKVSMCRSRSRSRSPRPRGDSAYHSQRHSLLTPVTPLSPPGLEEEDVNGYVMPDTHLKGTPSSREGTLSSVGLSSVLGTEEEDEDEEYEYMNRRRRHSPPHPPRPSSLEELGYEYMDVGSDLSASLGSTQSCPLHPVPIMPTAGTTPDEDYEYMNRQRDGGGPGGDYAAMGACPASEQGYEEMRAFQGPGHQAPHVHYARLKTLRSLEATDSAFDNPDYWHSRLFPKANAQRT
In short: as §1

[6] = target: T6, scanMAX Kinase assay panel (Homo sapiens, UniProt Q99755); details: PIP5K1A; 1 uM; read-out: Percent Control (%)
T6 construct: purchased DiscoverX
T6 sequence (Q99755 whole entry): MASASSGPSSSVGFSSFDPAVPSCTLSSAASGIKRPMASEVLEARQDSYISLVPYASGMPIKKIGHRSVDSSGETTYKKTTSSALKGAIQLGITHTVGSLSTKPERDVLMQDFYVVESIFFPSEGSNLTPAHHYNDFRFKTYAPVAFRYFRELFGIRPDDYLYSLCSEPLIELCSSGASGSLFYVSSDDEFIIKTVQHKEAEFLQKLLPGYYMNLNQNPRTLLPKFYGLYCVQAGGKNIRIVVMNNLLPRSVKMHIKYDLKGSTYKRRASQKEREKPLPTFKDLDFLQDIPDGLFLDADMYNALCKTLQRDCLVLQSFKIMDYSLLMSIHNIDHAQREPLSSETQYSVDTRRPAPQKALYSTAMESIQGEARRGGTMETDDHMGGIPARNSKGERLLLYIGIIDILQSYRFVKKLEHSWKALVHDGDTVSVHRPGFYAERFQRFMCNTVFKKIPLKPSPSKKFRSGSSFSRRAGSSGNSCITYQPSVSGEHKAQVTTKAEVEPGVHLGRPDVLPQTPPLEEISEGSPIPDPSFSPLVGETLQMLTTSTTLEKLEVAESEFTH
In short: as §1

[7] = target: T7, scanMAX Kinase assay panel (Homo sapiens, UniProt Q9H0K1); details: SIK2; 1 uM; read-out: Percent Control (%)
T7 construct: purchased DiscoverX
T7 sequence (Q9H0K1 whole entry): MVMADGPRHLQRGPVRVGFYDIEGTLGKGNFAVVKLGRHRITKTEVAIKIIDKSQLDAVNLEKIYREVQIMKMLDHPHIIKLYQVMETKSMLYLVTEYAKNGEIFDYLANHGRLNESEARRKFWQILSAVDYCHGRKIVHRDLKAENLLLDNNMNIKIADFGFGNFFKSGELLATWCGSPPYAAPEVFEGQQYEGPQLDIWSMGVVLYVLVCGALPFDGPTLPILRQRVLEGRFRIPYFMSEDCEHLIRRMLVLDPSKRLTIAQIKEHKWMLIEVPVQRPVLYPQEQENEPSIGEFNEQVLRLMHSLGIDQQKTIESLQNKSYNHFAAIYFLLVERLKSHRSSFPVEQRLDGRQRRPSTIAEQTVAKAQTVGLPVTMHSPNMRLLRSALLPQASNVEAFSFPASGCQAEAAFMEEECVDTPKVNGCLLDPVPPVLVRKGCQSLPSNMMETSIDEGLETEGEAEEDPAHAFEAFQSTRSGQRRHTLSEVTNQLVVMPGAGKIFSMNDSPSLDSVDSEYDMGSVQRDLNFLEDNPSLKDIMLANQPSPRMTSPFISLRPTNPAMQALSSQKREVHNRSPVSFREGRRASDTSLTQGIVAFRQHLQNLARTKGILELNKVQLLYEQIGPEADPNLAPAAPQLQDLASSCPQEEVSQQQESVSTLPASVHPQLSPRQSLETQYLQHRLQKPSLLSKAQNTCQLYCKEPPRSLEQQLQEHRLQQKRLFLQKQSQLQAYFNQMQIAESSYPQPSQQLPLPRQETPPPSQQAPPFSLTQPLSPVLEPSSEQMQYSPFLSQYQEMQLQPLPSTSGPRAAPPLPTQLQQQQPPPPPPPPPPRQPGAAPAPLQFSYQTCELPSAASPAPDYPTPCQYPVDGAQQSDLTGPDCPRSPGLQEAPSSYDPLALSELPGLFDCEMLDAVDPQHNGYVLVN
In short: as §1

Row | Structure (SMILES) | remaining binding at 1 µM [1] [%] | remaining binding at 1 µM [2] [%] | remaining binding at 1 µM [3] [%] | remaining binding at 1 µM [4] [%] | remaining binding at 1 µM [5] [%] | remaining binding at 1 µM [6] [%] | remaining binding at 1 µM [7] [%]
1 | Cc1ccc(C(=O)Nc2ccc(CN3CCN(C)CC3)c(C(F)(F)F)c2)cc1C#Cc1cnc2c(Nc3cnn(C)c3)cccn12 [Example 1, 4-methyl-3-((8-((1-methyl-1H-pyrazol-4-yl)amino)imidazo[1,2-a]pyridin-3-yl)ethynyl)-N-(4-((4-methylpiperazin-1-yl)methyl)-3-(trifluoromethyl)phenyl)benzamide] | 77 | 98 | 62 | 68 | 86 | 94 | 44
2 | Cc1cn(-c2cc(NC(=O)c3ccc(C)c(C#Cc4cnc5c(Nc6cnn(C)c6)cccn45)c3)cc(C(F)(F)F)c2)cn1 [Example 12, 4-methyl-N-(3-(4-methyl-1H-imidazol-1-yl)-5-(trifluoromethyl)phenyl)-3-((8-((1-methyl-1H-pyrazol-4-yl)amino)imidazo[1,2-a]pyridin-3-yl)ethynyl)benzamide] | 60 | 88 | 100 | 100 | 98 | 84 | 58
3 | Cc1ccc(NC(=O)C2(C(=O)Nc3ccc(F)cc3)CC2)cc1C#Cc1cnc2c(Nc3cnn(C(C)C)c3)cccn12 [Example 78] | 94 | 100 | 90 | 100 | 99 | 98 | 53
